# Reference: patent US5554620A, “Substituted 6,11-ethano-6,11-dihydrobenzo[b] quinolizinium salts and compositions and methods of use thereof” (Sterling Winthrop Inc., priority 1994, dated 1996)
# Biological target: PCP receptor
# Test: [3H]TCP radioreceptor assay (binding to PCP recognition sites)
# Set-up: species or system rat (male Sprague-Dawley, whole brain)
# Conditions: [3H]TCP approx. 1 nM, rat brain membranes; mean of at least two determinations
# Procedure: [^3 H]TCP Radioreceptor Assay
# [^3 H]TCP binding to PCP recognition sites was performed as described by Vignon et al. Brain Research 1983, 280, 194-197. Male Sprague-Dawley rats were sacrificed by decapitation, and whole brains were homogenized in 10 volumes (wt/vol) of cold Tris-HCl buffer (50 mM, pH 7.7) using a Brinkmann Polytron (setting 6, 30 sec). The homogenate was centrifuged at 40,000×g for 10 min at 4° C. The supernatant was decanted, and the homogenization and centrifugation steps were repeated twice as described above. Following this, the pellet was resuspended in Tris-HCl (5 mM, pH 7.7) at a tissue concentration of 0.5-0.75 g/mL, and one mL aliquots were frozen at -70° C. until use. The binding characteristics for PCP recognition sites were not altered by the freezing of membrane suspensions.
# On the day of the assay, membrane aliquots were thawed, resuspended in fresh 5 mM Tris-HCl buffer at a tissue concentration of 1 mg/mL, and stored on ice until use. Each assay tube contained 100 μl of [^3 H]TCP at a final concentration of approximately 1 nM, 100 μL of various concentrations of the compounds of interest, 500 μL of the tissue suspension and 300 μL of buffer to a final assay volume of 1 mL and a final protein concentration of 0.5 mg/tube. Non-specific binding was defined by addition of a final concentration of 100 μM PCP to blank tubes. All tubes were incubated at room temperature for 25 min before termination of the reaction by rapid filtration over Whatman GF/B glass fiber filters that had been presoaked in a solution of 0.5% polyethylenimine for at least 1 hr prior to use. Filters were washed with three 4 mL volumes of cold Tris buffer. Following addition of scintillation cocktail, the amount of bound radioactivity was determined by liquid scintillation spectrometry using a Beckman LS 5000TA liquid scintillation counter with an efficiency for tritium of approximately 55%. Inhibition constants (Ki values) were calculated using the EBDA/LIGAND program (McPherson, J. Pharmacol. Meth. 1985, 14, 213-228), purchased from ElsevierBiosoft, Inc. Results are reported as the Ki values (in nM) which are expressed as the mean of at least two separate determinations; or as a percent (%) inhibition of binding at 10 μM.
row,SMILES,Ki
1,"c1ccc2c(c1)C1C3CCc4occc4C3(c3ccoc3)C2c2cccc[n+]21 (single isomer, unassigned) [69(c), 6,11[[5',4']-4'-(3-furyl)-4,5,6,7-tetrahydrobenzofuryl]-6,11-dihydrobenzo[b]quinolizinium perchlorate]",0.9 nM
2,"c1ccc2c(c1)C1C3CCc4occc4C3(c3cc4ccccc4o3)C2c2cccc[n+]21 (stereo not shown) [10(c-k), 6,11[[5',4']-4'-(2-benzofuryl)-4',5',6',7'-tetrahydro-benzofuryl]6,11-dihydrobenzo[b]quinolizinium hexafluorophosphate]",696 nM
3,"COc1ccc2c(c1)C1(c3ccccc3)C3c4ccccc4C(C1C2)[n+]1ccccc13 (stereo not shown) [3(d), 6,11[[2',3']-3'-phenyl-6'-methoxyindanyl]6,11-dihydrobenzo[b]quinoliziniumhexafluorophosphate]",14.1 nM
4,"c1cncc(C2(c3cccnc3)CC3c4ccccc4C2c2cccc[n+]23)c1 (stereo not shown) [42(E), 6,11-ethano-12,12-di(3-pyridyl)-6,11-dihydrobenzo[b]quinolizinium chloride]",2270 nM
5,"c1ccc2c(c1)CC1C3c4ccccc4C(c4cccc[n+]43)C21c1ccoc1 (stereo not shown) [6(c), 6,11[[2',3']-3'-(3-furyl)-indanyl]6,11-dihydrobenzo[b]quinolizinium hexafluorophosphate]",1.19 nM
6,"Oc1cccc2c1C1c3cccc[n+]3C2CC1(c1ccoc1)c1ccn[nH]1 (stereo not shown) [Example 200, 6,11-ethano-12-(3-furyl)-12-(pyrazol-5-yl)-10-hydroxy-6,11-dihydro-benzo[b]quinolizinium chloride]",11.5 nM
7,"CCOC1(c2ccoc2)CC2c3ccccc3C1c1cccc[n+]12 (stereo not shown) [11(d), 6,11-ethano-12-(3-furyl)-12-ethoxy-6,11-dihydrobenzo[b]quinolizinium hexafluorophosphate]",26 nM
8,"CCCCCCCCOC(=O)CC(C)(C)C(=O)Oc1cccc2c1C1c3cccc[n+]3C2CC1(c1ccoc1)c1ccoc1 (stereo not shown) [194(d), 12,12-di(3-furyl)-10-(OC(O)C(CH3)2 CH2 C(O)OOctyl)-6,11-ethano-6,11-dihydrobenzo[b]quinolizinium chloride]",71.3 nM
9,"c1ccc(C23c4ccccc4CC2C2c4ccccc4C3c3cccc[n+]32)cc1 (stereo not shown) [Example 1F, 6,11[[2',3']-3'-phenyl-indanyl]6,11-dihydrobenzo[b]quinolizinium hexafluorophosphate]",7.58 nM
10,"Cc1ccc(S(=O)(=O)n2nccc2C2(c3ccoc3)CC3c4ccccc4C2c2cccc[n+]23)cc1 (single isomer, unassigned) [Example 184(c), 6,11-ethano-12-(3-furyl)-12-[1-(p-toluenesulfonyl)pyrazol-5-yl]-6,11-dihydrobenzo[b]quinolizinium bromide]",12900 nM
11,"Cc1noc2c1CCC1C3c4ccccc4C(c4cccc[n+]43)C21c1ccoc1 (stereo not shown) [8(c), 6,11[[6',7']-7'-(3-furyl)-3'-methyl-4',5',6',7'-tetrahydrobenzisoxazol]6,11-dihydrobenzo[b]quinolizinium hexafluorophosphate]",117 nM
12,"[O-][Cl+3]([O-])([O-])[O-].c1ccc2c(c1)C1CC(c3cocn3)(c3cocn3)C2c2cccc[n+]21 (stereo not shown) [53(g), 6,11-ethano-12,12-di(4-oxazolyl)-6,11-dihydrobenzo[b]quinolizinium perchlorate]",93 nM
13,"Clc1ccc2c(c1)C1c3cccc[n+]3C2CC1(c1ccn[nH]1)c1ccn[nH]1 (stereo not shown) [189(b), 6,11-ethano-12,12-di-(pyrazol-5-yl)]-9-chloro-6,11-dihydrobenzo[b]quinolizinium perchlorate]",22.5 nM
14,"Oc1cccc2c1C1c3cccc[n+]3C2CC1(c1ccccc1)c1ccccc1 (stereo not shown) [28(c), 6,11-ethano-12,12-diphenyl-10-hydroxy-6,11-dihydrobenzo[b]quinolizinium chloride]",11.7 nM
15,"c1ccc2c(c1)C1CC(c3cc[nH]c3)(c3cc[nH]c3)C2c2cccc[n+]21 (stereo not shown) [71(F), 6,11-ethano-12,12-di(3-pyrrolyl)-6,11-dihydrobenzo[b]quinolizinium chloride]",3.1 nM
16,"c1ccc2c(c1)C1CC(c3nccs3)(c3nccs3)C2c2cccc[n+]21 (stereo not shown) [61(c), 6,11-ethao-12,12-di(2-thiazolyl)-6,11-dihydrobenzo[b]quinolizinium perchlorate]",17 nM
17,"CCOC1(c2ccoc2)CC2(C)c3ccccc3C1c1cccc[n+]12.[O-][Cl+3]([O-])([O-])[O-] (stereo not shown) [Example 13(a), 6,11-ethano-12-(3-furyl)-12-ethoxy-6-methyl-6,11-dihydrobenzo[b]quinolizinium perchlorate]",19 nM
18,"CCCCCCCC(=O)Oc1cccc2c1C1c3cccc[n+]3C2CC1(c1ccoc1)c1ccoc1 (stereo not shown) [Example 165, 6,11-ethano-12,12-di(3-furyl)-10-octanoyloxy-6,11-dihydrobenzo[b]quinolizinium chloride]",31.3 nM
19,"COc1cccc2c1CC1C3c4ccccc4C(c4cccc[n+]43)C21c1ccccc1 (stereo not shown) [4(E), 6,11[[2',3']-3'-phenyl-7'-methoxy-indanyl]16,11-dihydrobenzo[b]quinolizinium hexafluoro-phosphate]",5870 nM
20,"Brc1cccc(C2(c3cccc(Br)c3)CC3c4ccccc4C2c2cccc[n+]23)c1 (stereo not shown) [36(c), 6,11-ethano-12,12-di(m-bromophenyl)-6,11-dihydrobenzo[b]quinolizinium chloride]",185 nM
21,"OCc1cccc2c1C1c3cccc[n+]3C2CC1(c1ccoc1)c1ccoc1.[O-][Cl+3]([O-])([O-])[O-] (stereo not shown) [182(e), 6,11-ethano-12,12-di(3-furyl)-10-hydroxymethyl-6,11-dihydrobenzo[b]quinolizinium perchlorate]",159 nM
22,"Fc1cc(F)c2c(c1)C1CC(c3ccccc3)(c3ccccc3)C2c2cccc[n+]21 (stereo not shown) [33(c), 6,11-ethanol-12,12-diphenyl-8,10-difluoro-6,11-dihydrobenzo[b]quinolizinium chloride 1/4 hydrate]",1140 nM
23,"COc1cccc(C23c4ccccc4CC2C2c4ccccc4C3c3cccc[n+]32)c1 (single isomer, unassigned) [5(d), 6,11[2',3']-3'-(3-methoxyphenyl)-indanyl]16,11-dihydrobenzo[b]quinolizinium hexafluorophosphate]",22 nM
24,"CCOC(=O)CCC(=O)Oc1cccc2c1C1c3cccc[n+]3C2CC1(c1ccoc1)c1ccoc1 (stereo not shown) [Example 166, 6,11-ethano-12,12-di(3-furyl)-10-(3-ethoxycarbonyl)propionyloxy-6,11-dihydrobenzo-[b]quinolizinium chloride]",61.1 nM
25,"c1ccc2c(c1)C1C3CCc4occc4C3(c3ccoc3)C2c2cccc[n+]21 (stereo not shown) [7(c), 6,11-[5',4""]-4'-(3-furyl)-4',5',6',7'-tetrahydrobenzofuryl]-6,11-dihydrobenzo[b]quinolizinium chloride]",1.1 nM
26,"Oc1ccc2c(c1)C1c3cccc[n+]3C2CC1(c1ccccc1)c1ccccc1 (stereo not shown) [34(b), 6,11-ethano-12,12-diphenyl-9-hydroxy-6,11-dihydrobenzo[b]quinolizinium chloride]",21.9 nM
27,"Oc1cccc2c1C1c3cccc[n+]3C2CC1(c1cc[nH]c1)c1cc[nH]c1 (stereo not shown) [190(b), 6,11-ethano-12,12-di(3-pyrrolyl)-10-hydroxy-6,11-dihydrobenzo[b]quinolizinium chloride]",10.7 nM

# Same assay, conditions: inhibition of [3H]TCP binding at 10 μM
row,SMILES,[3H]TCP percent inhibition @ 10 μm
1,"c1ccc2c(c1)C1CC(c3nc[nH]n3)(c3nc[nH]n3)C2c2cccc[n+]21 (stereo not shown) [159(h), 6,11-ethano-12,12-di-[3-(1,2,4-triazolyl)]-6,11-dihydrobenzo[b]quinolizinium chloride]",31%
